Measurements published in ChEMBL document CHEMBL1201862, “PubChem BioAssay data set” (2004).
Where a name gives a salt, the structure may show the parent alone.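 Briefly, cells in 96-well plates were exposed to five compound concentrations for 48 h, and endpoints were estimated by linear interpolation. Abbreviation: GI50, concentration required for 50% inhibition of growth.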 The source made the active and inactive calls. Cut-off read from the data, not from the text of the source: active = GI50 up to about 1.1 µM and inactive = higher.

Columns and labels:
Test in all cases: NCI-60 cell line screen, 48 h
BT-549 = test system: BT-549
CAKI-1 = test system: CAKI-1
DU-145 = test system: DU-145
Hs-578T = test system: Hs-578T
KM12 = test system: KM12
LOX IMVI = test system: LOX IMVI
M14 = test system: M14
MDA-MB-231 = test system: MDA-MB-231
NCI-H226 = test system: NCI-H226
NCI-H23 = test system: NCI-H23
NCI-H522 = test system: NCI-H522
PC-3 = test system: PC-3
SK-MEL-28 = test system: SK-MEL-28
SK-MEL-2 = test system: SK-MEL-2
SK-MEL-5 = test system: SK-MEL-5
SK-OV-3 = test system: SK-OV-3
SN12C = test system: SN12C
SNB-75 = test system: SNB-75
T47D = test system: T47D
HCC 2998 = test system: HCC 2998

Row | Structure (SMILES) | GI50 (BT-549) | GI50 (CAKI-1) | GI50 (DU-145) | GI50 (Hs-578T) | GI50 (KM12) | GI50 (LOX IMVI) | GI50 (M14) | GI50 (MDA-MB-231) | GI50 (NCI-H226) | GI50 (NCI-H23) | GI50 (NCI-H522) | GI50 (PC-3) | GI50 (SK-MEL-28) | GI50 (SK-MEL-2) | GI50 (SK-MEL-5) | GI50 (SK-OV-3) | GI50 (SN12C) | GI50 (SNB-75) | GI50 (T47D) | GI50 (HCC 2998)
1 | CN1CCN(CCCN)CC1 | > 100 µM (inactive) | > 100 µM (inactive) | > 100 µM (inactive) | > 100 µM (inactive) | > 100 µM (inactive) | > 100 µM (inactive) | > 100 µM (inactive) | > 100 µM (inactive) | > 100 µM (inactive) | > 100 µM (inactive) | > 100 µM (inactive) | > 100 µM (inactive) | > 100 µM (inactive) | > 100 µM (inactive) | > 100 µM (inactive) | > 100 µM (inactive) | > 100 µM (inactive) | > 100 µM (inactive) | > 100 µM (inactive) | –
2 | CCOC(=O)c1ccc2c(c1)nc1n2C(c2c(F)cccc2F)SC1 (stereo not drawn) | 80.5 µM (inactive) | 78.3 µM (inactive) | 30.6 µM (inactive) | 26.2 µM (inactive) | 17.1 µM (inactive) | 21.1 µM (inactive) | 27.9 µM (inactive) | > 100 µM (inactive) | 6.9 µM (inactive) | 17.6 µM (inactive) | – | 21.3 µM (inactive) | 97.1 µM (inactive) | 15.2 µM (inactive) | 13.1 µM (inactive) | 94.6 µM (inactive) | 56.4 µM (inactive) | 62.5 µM (inactive) | 12.8 µM (inactive) | 35.8 µM (inactive)
3 | COc1ccccc1NC(=O)C(C#N)=C(SC)SC | > 100 µM (inactive) | 61 µM (inactive) | > 100 µM (inactive) | > 100 µM (inactive) | 6.78 µM (inactive) | > 100 µM (inactive) | > 100 µM (inactive) | > 100 µM (inactive) | > 100 µM (inactive) | > 100 µM (inactive) | > 100 µM (inactive) | > 100 µM (inactive) | > 100 µM (inactive) | > 100 µM (inactive) | > 100 µM (inactive) | > 100 µM (inactive) | > 100 µM (inactive) | – | 30.2 µM (inactive) | > 100 µM (inactive)
4 | CCCCCCn1c(SC)nc(COC(=O)NC)c1COC(=O)NC | 19.5 µM (inactive) | 15.7 µM (inactive) | 16.5 µM (inactive) | 20.4 µM (inactive) | 18.2 µM (inactive) | 21.3 µM (inactive) | 21.3 µM (inactive) | 17.6 µM (inactive) | 17.2 µM (inactive) | 21.2 µM (inactive) | 11.4 µM (inactive) | 15.1 µM (inactive) | 17.7 µM (inactive) | 25.8 µM (inactive) | 16.6 µM (inactive) | 19 µM (inactive) | 16.7 µM (inactive) | 14.6 µM (inactive) | 17.7 µM (inactive) | –
5 | CC[C@@]1(O)C[C@H](OC2CC(N(C)C)C(OC3CC(O)C(OC4CCC(=O)C(C)O4)C(C)O3)C(C)O2)c2c(cc3c(c2O)C(=O)c2c(O)ccc(O)c2C3=O)[C@H]1C(=O)OC (stereo partly drawn) | 0.00113 µM (active) | < 1e-05 µM (active) | 0.00173 µM (active) | 0.00366 µM (active) | 8.77e-05 µM (active) | 2e-05 µM (active) | 0.000438 µM (active) | 0.00288 µM (active) | 5.83e-05 µM (active) | 0.00157 µM (active) | 5.28e-05 µM (active) | 0.000395 µM (active) | 0.000343 µM (active) | 7.87e-05 µM (active) | 0.000535 µM (active) | 0.000404 µM (active) | 4.18e-05 µM (active) | 0.000105 µM (active) | 0.000773 µM (active) | –
6 | Nc1nc(S)nc2snnc12 | > 100 µM (inactive) | > 100 µM (inactive) | > 100 µM (inactive) | > 100 µM (inactive) | > 100 µM (inactive) | > 100 µM (inactive) | – | > 100 µM (inactive) | > 100 µM (inactive) | > 100 µM (inactive) | > 100 µM (inactive) | > 100 µM (inactive) | > 100 µM (inactive) | > 100 µM (inactive) | > 100 µM (inactive) | > 100 µM (inactive) | > 100 µM (inactive) | > 100 µM (inactive) | > 100 µM (inactive) | > 100 µM (inactive)
7 | Cn1c2c(c3c(=O)[nH]ncc31)Cc1ccccc1-2 | 18.3 µM (inactive) | 13.3 µM (inactive) | 10.6 µM (inactive) | 26.5 µM (inactive) | 16.3 µM (inactive) | 6.65 µM (inactive) | 15.6 µM (inactive) | 14 µM (inactive) | 13.8 µM (inactive) | 24.3 µM (inactive) | 17.8 µM (inactive) | 21.5 µM (inactive) | 24.4 µM (inactive) | 21.3 µM (inactive) | 12.2 µM (inactive) | 6.49 µM (inactive) | 7.62 µM (inactive) | 16.1 µM (inactive) | 25.6 µM (inactive) | –
8 | COC(=O)C1=C(C)NC(C)=C([N+](=O)[O-])C1c1cccc(N=O)c1 (stereo not drawn) | 16.7 µM (inactive) | 7.96 µM (inactive) | 15.2 µM (inactive) | 15.2 µM (inactive) | 13.6 µM (inactive) | 16.1 µM (inactive) | 13.1 µM (inactive) | 18.3 µM (inactive) | 22 µM (inactive) | 18.5 µM (inactive) | 1.66 µM (inactive) | 17.9 µM (inactive) | 17.9 µM (inactive) | 18.2 µM (inactive) | 15.6 µM (inactive) | 21.9 µM (inactive) | 19.7 µM (inactive) | – | 12.1 µM (inactive) | 18.9 µM (inactive)
9 | O=C(CCc1cccc(O)c1)NCCc1cccc(OCc2ccccc2)c1 | 16.1 µM (inactive) | 26.9 µM (inactive) | 27.5 µM (inactive) | 16.4 µM (inactive) | 6.81 µM (inactive) | 15.6 µM (inactive) | 16.2 µM (inactive) | 18.5 µM (inactive) | 11.4 µM (inactive) | 18.9 µM (inactive) | 17.1 µM (inactive) | 10.3 µM (inactive) | 16.1 µM (inactive) | 15.6 µM (inactive) | 16 µM (inactive) | 23.6 µM (inactive) | 18.8 µM (inactive) | – | 18.8 µM (inactive) | 17.3 µM (inactive)
10 | CN(C)/C=N/c1ccc2c3c(cccc13)-c1ccccc1-2 | 17 µM (inactive) | – | 12.7 µM (inactive) | 10.3 µM (inactive) | – | 14.5 µM (inactive) | 10.2 µM (inactive) | 14.3 µM (inactive) | 10.6 µM (inactive) | 17.2 µM (inactive) | 3.66 µM (inactive) | 12.8 µM (inactive) | 17.7 µM (inactive) | 17.1 µM (inactive) | 14.9 µM (inactive) | 13.7 µM (inactive) | 12.6 µM (inactive) | 13 µM (inactive) | 15 µM (inactive) | –
11 | CC(C)=CCNc1ncnc2c1ncn2CCC#N | > 100 µM (inactive) | – | > 100 µM (inactive) | > 100 µM (inactive) | > 100 µM (inactive) | > 100 µM (inactive) | > 100 µM (inactive) | > 100 µM (inactive) | > 100 µM (inactive) | > 100 µM (inactive) | > 100 µM (inactive) | > 100 µM (inactive) | > 100 µM (inactive) | – | > 100 µM (inactive) | > 100 µM (inactive) | > 100 µM (inactive) | 19.8 µM (inactive) | > 100 µM (inactive) | > 100 µM (inactive)
12 | [N-]=[N+]=NC1(N=[N+]=[N-])C(=O)NN=C(c2ccccc2)C1=O (stereo not drawn) | > 100 µM (inactive) | – | > 100 µM (inactive) | > 100 µM (inactive) | > 100 µM (inactive) | 37.7 µM (inactive) | > 100 µM (inactive) | > 100 µM (inactive) | > 100 µM (inactive) | > 100 µM (inactive) | > 100 µM (inactive) | > 100 µM (inactive) | 16.3 µM (inactive) | – | – | > 100 µM (inactive) | > 100 µM (inactive) | > 100 µM (inactive) | 31.1 µM (inactive) | > 100 µM (inactive)
13 | CCCCCCCCCCCCC(O)C1CCC(C(O)CCCCCCC(O)CCCCCCCC2=CC(C)OC2=O)O1 (stereo not drawn) | 8.87 µM (inactive) | 24.9 µM (inactive) | > 10 µM (inactive) | 4.4 µM (inactive) | 32.4 µM (inactive) | 13 µM (inactive) | 19.2 µM (inactive) | 28.6 µM (inactive) | 48.2 µM (inactive) | 0.0109 µM (active) | 16.5 µM (inactive) | 31 µM (inactive) | 51.9 µM (inactive) | 24.6 µM (inactive) | 1.19 µM (inactive) | – | 25.8 µM (inactive) | 5.58 µM (inactive) | 2.8 µM (inactive) | 30.9 µM (inactive)
14 | COc1ccc(C(C)NNC(=O)c2cc[n+]([BH2-]C#N)cc2)c(OC)c1 (stereo not drawn) | > 100 µM (inactive) | > 100 µM (inactive) | > 100 µM (inactive) | > 100 µM (inactive) | > 100 µM (inactive) | > 100 µM (inactive) | > 100 µM (inactive) | > 100 µM (inactive) | > 100 µM (inactive) | – | > 100 µM (inactive) | > 100 µM (inactive) | > 100 µM (inactive) | > 100 µM (inactive) | > 100 µM (inactive) | – | > 100 µM (inactive) | > 100 µM (inactive) | > 100 µM (inactive) | > 100 µM (inactive)
15 | N=C(N)c1ccc(-c2ccc(-c3ccc(C(=N)N)cc3)o2)cc1 [FURAMIDINE HYDROCHLORIDE] | 37.5 µM (inactive) | 54.3 µM (inactive) | 32.7 µM (inactive) | 21.4 µM (inactive) | 22.5 µM (inactive) | – | 25.1 µM (inactive) | > 100 µM (inactive) | 69.2 µM (inactive) | 22 µM (inactive) | 24.8 µM (inactive) | 39.5 µM (inactive) | 20.6 µM (inactive) | 23.8 µM (inactive) | 11.9 µM (inactive) | > 100 µM (inactive) | 12.6 µM (inactive) | 42 µM (inactive) | 23.4 µM (inactive) | –
